Tests used:
[1] = target: T1, MAO-B (Rattus norvegicus, UniProt P19643); assay: In vitro MAO-B enzyme activity assay (radioenzymatic, 14C-phenylethylamine); type: biochemical; settings: rat brain crude mitochondrial fraction; 30 min preincubation; concentration inhibiting 90% enzyme activity
T1 construct: Membrane preparations (crude mitochondrial fraction); from tissue; host or cells: rat brain, crude mitochondrial fraction
T1 sequence (P19643 1-520): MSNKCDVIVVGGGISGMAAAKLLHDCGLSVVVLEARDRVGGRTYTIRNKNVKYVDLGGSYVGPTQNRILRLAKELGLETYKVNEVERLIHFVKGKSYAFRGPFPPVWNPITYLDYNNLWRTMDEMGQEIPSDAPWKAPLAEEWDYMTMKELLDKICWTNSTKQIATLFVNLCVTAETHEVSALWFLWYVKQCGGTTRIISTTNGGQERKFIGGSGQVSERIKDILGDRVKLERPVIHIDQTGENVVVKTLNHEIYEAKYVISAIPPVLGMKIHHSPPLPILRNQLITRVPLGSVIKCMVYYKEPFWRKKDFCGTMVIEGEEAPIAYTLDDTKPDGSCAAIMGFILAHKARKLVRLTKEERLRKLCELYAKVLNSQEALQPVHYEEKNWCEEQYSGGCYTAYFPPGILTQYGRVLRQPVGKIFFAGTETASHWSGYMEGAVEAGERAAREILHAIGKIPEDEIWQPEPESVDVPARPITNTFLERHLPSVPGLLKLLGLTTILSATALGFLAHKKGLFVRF
Method: In Vitro MAO-B Enzyme Activity Assay
Membrane preparations (crude mitochondrial fraction): male Wistar rats (Harlan, Italy-175-200 g) were sacrificed under light anaesthesia and brains were rapidly removed and homogenized in 8 vol. of ice-cold 0.32 M sucrose buffer containing 0.1 M EDTA, pH 7.4. The crude homogenate was centrifuged at 2220 rpm for 10 min and the supernatant recovered. The pellet was homogenized and centrifuged again and the two supernatants were pooled and centrifuged at 9250 rpm for 10 min, +4° C. The pellet was resuspended in fresh buffer and centrifuged at 11250 rpm for 10 min, +4° C. The resulting pellet was stored at −80° C. until use.
In vitro enzyme activity assay: the enzyme activities were assessed with a radioenzymatic assay using the selective substrate ^14C-phenylethylamine (PEA) for MAO-B.
The mitochondrial pellet (500 μg protein) was resuspended in 0.1M phosphate buffer pH 7.4 and 500 μl was added to 50 μl of the test compound or buffer for 30 min at 37° C. (preincubation) then the substrate (50 μl) was added. The incubation was carried out for 10 min at 37° C. (^14C-PEA, 0.5 μM).
The reaction was stopped by adding 0.2 ml HCl or perchloric acid. After centrifugation, the deaminated metabolites were extracted with 3 ml of toluene and the radioactive organic phase measured by liquid scintillation spectrometry at 90% efficiency. Radioactivity in the eluate indicates the production of neutral and acidic metabolites formed as a result of MAO-B activity.
The enzymatic activity was expressed as nmoles of substrate transformed/mg protein/min. The activity of MAO-B in the sample was expressed as a percentage of control activity in the absence of inhibitors after subtraction of appropriate blank values.
The drug inhibition curves were obtained from at least eight different concentrations, each in duplicate (10^−10 to 10^−5 M) and the IC90 values (the drug concentration inhibiting 90% enzyme activity) with confidence intervals determined using linear regression analysis. (aided-computer program).
To reach a significant increase in neurotransmitter levels, MAO-B enzyme activity has to be blocked at least by 90%.

[2] = target: T2, N-type calcium channels (Homo sapiens, UniProt Q00975); assay: Calcium influx assay (fluorescence, differentiated IMR32 cells with nifedipine); type: cell-based; settings: 1 μM nifedipine, 100 mM KCl depolarization, read-out: Ca 2+ N-Type IC50
T2 construct: IMR32 preferentially express on the membrane surface N-type calcium channels; endogenous in cells; host or cells: IMR32 human neuroblastoma cells, differentiated with dibutyryl-cAMP and bromodeoxyuridine
Method: Under differentiating conditions, IMR32 preferentially express on the membrane surface N-type calcium channels. The remaining L-type calcium channels were blocked using the selective L type blocker, nifedipine. In these experimental conditions, only N type channels can be detected.
IMR32 cells were differentiated using 1 mM dibutyryl-cAMP and 2.5 μM bromodeoxyuridine for 8 days (4 times) in 225 cm^2 flask, then detached, seeded at 200,000 cells/well on 96 polylysine-coated plates and further incubated for 18-24 h in the presence of differentiating buffer before use.
The Ca^2+ Kit Assay (Molecular Devices), based on a fluorescent calcium indicator 485-535 nm wavelength, was used.
Differentiated cells were incubated with dye loading for 30 min at 37° C. then, nifedipine alone (1 μM) or in the presence of w-conotoxin or test compounds were added for further 15 min.
The fluorescence (485-535 nm) was measured before and after (30-40 sec) the automated injection of 100 mM KCl depolarizing solution using a Victor plate reader (Perkin Elmer).
The inhibition curves were calculated from 5 concentrations, each in triplicate, and the IC50 determined using a linear regression analysis.
The activity on N-type Calcium channel, expressed as IC50 of the (R)-isomer of this invention and the comparison compounds is reported in Table I.

[3] = target: T3, Na channel Nav 1.3 (Homo sapiens, UniProt Q9NY46); assay: Electrophysiological assay, tonic block, two electrodes voltage clamp in Xenopus oocytes; type: cell-based; settings: depolarized (-40 mV, half max current availability) condition, read-out: Nav 1.3 Dep. Curr IC50
T3 construct: expressed in transfected cells; host or cells: Xenopus laevis oocytes injected with Nav1.3 cRNA
Method: Electrophysiological Assay
Experiments for the determination of the tonic block are carried out on isolated Xenopus oocytes expressing the Na channel Nav 1.3. Currents are recorded using the two electrodes voltage clamp (TEVC) technique
The day after the preparation, the oocytes are injected (Drummond Nanoject) with 20 ng Nav1.3 cRNA and maintained in NDE.
Starting from 48 h after the mRNA injection whole cell currents are recorded using a two-microelectrode voltage clamp automated workstation.
Compounds are prepared in stock solutions (20 mM) and dissolved to the final concentrations in the external bath solution.
The current/voltage (I/V) relationship for the Nav1.3 currents expressed in oocytes was first studied in order to determine the membrane potential evoking the maximal activation.
The steady-state inactivation properties of the Nav1.3 currents were then studied in order to determine the membrane potentials for the resting state (Vrest) at which channel availability is maximal (Imax), and the membrane potential for the half maximal inactivation (V ½) producing half of the max current availability (I ½) respectively. This two voltage conditions were then used for the evaluation of the voltage dependence of the tonic block.
Finally a two-step protocol was used to determine the voltage dependence of the block of Nav1.3: the oocytes were clamped at −80 mV, the currents were activated by a 100 ms step pulse to 0 mV (Vtest) from a 3000 ms preconditioning potential at −80 mV (resting, Imax condition) and −40 mV (depolarized, I ½ condition), respectively.
Current amplitudes in the two conditions were recorded in the absence and in the presence of different concentrations of compound (washout was made in between) in order to determine the concentration-inhibition curves and IC50 values for the tonic block in the depolarized (half max current availability) conditions.
The activity on Nav 1.3 sodium channel, expressed as IC50 of the (R)-isomers of this invention and of the comparison compounds is reported in Table I.

[4] = test system: mice; assay: Mice formalin test; type: in vivo; settings: 20 mg/kg p.o. 15 min before formalin; cumulative licking time, late phase 30-40 min, vs control group
Method: According to a modified protocol from Rosland et al., (1990) mice were injected subcutaneously (s.c.) with 20 μL of 2.7% solution of formalin into the plantar surface of left hindpaw and placed immediately into clear PVC observation chambers (23×12×13 cm).
The test compound (20 mg/kg) was administered p.o. 15 min before formalin injection in a volume of 10 ml/kg body weight to groups of 10 mice per dose. Control group was treated with vehicle.
Pain behavior was quantified by counting the cumulative licking time (seconds) of the injected paw with formalin. Measurements were taken during the late phase 30-40 min after formalin injection (Tjolsen et al 1992).
The analgesic effect of the compounds was calculated as the % of inhibition of the cumulative licking time respect the control group.

T2 sequence (Q00975 whole entry): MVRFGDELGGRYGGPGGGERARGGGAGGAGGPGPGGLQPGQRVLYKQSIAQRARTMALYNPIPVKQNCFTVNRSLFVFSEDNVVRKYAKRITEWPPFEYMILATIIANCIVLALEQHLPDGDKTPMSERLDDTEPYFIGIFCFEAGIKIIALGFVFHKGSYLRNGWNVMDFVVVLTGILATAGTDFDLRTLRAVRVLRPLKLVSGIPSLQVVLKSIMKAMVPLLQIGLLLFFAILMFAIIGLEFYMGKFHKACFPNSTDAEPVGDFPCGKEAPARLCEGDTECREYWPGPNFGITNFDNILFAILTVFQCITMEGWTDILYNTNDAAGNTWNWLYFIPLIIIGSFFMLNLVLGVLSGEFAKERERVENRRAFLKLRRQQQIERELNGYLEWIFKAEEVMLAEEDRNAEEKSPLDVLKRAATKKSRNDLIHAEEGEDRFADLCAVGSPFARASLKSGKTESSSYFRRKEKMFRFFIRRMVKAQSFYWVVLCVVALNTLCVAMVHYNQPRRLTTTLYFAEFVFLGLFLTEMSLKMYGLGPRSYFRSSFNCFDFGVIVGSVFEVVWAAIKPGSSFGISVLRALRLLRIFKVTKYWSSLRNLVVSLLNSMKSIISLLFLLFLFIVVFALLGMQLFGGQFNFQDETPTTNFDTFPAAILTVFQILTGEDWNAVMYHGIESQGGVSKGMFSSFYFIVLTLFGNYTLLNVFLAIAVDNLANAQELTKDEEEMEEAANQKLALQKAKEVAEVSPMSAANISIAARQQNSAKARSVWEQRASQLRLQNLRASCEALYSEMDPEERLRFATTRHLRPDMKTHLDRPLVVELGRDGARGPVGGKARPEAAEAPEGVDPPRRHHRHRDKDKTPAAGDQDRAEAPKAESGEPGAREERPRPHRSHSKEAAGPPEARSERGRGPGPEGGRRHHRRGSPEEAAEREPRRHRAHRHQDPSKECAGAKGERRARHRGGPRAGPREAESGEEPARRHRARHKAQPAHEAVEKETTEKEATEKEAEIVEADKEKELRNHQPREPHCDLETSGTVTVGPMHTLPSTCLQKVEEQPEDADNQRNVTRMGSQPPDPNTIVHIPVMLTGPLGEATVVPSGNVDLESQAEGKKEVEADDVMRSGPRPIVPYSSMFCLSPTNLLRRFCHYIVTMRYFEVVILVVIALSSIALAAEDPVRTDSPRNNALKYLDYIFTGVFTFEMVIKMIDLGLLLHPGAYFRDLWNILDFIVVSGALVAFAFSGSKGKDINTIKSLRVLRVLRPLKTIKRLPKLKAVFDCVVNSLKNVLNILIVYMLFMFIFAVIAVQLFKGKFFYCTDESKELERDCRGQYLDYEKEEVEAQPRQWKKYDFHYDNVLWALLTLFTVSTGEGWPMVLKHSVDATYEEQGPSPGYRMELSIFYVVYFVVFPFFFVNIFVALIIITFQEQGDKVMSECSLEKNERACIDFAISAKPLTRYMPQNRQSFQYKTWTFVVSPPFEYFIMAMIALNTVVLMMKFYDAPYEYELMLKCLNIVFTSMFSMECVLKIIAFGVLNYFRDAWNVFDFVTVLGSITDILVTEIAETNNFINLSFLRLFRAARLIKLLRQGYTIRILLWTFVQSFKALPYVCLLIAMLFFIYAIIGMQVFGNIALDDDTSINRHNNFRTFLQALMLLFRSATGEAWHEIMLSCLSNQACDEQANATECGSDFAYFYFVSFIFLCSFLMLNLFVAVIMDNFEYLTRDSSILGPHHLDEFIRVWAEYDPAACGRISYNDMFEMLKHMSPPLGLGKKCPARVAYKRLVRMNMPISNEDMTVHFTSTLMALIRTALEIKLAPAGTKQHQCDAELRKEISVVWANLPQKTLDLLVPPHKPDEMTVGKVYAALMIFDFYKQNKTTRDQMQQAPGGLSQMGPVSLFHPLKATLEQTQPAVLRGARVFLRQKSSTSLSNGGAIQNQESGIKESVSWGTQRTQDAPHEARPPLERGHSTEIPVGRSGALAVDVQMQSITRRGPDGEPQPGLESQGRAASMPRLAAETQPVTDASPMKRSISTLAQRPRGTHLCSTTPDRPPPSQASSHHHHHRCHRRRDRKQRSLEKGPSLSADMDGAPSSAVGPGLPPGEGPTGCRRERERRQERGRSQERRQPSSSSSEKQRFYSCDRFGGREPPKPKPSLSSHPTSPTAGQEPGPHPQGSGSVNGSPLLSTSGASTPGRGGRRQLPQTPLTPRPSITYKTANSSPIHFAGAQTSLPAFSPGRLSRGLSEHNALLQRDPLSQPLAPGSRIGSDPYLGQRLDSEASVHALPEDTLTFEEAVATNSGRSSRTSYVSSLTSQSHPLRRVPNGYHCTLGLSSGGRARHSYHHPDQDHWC
T2 sequence (P54284 whole entry partner): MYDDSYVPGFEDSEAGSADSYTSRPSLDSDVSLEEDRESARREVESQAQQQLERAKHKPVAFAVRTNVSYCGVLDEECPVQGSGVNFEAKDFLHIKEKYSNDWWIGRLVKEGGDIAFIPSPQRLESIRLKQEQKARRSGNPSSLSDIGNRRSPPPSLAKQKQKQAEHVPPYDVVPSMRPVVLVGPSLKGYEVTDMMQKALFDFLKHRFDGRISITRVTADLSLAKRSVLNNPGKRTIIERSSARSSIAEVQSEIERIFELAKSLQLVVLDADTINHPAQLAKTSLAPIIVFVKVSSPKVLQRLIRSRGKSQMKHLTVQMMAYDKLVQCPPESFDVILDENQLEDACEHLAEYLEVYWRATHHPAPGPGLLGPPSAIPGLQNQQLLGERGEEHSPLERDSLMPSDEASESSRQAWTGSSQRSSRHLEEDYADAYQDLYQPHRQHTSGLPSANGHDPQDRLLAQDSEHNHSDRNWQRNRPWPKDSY
T2 sequence (P54289 25-956 partner limits assumed): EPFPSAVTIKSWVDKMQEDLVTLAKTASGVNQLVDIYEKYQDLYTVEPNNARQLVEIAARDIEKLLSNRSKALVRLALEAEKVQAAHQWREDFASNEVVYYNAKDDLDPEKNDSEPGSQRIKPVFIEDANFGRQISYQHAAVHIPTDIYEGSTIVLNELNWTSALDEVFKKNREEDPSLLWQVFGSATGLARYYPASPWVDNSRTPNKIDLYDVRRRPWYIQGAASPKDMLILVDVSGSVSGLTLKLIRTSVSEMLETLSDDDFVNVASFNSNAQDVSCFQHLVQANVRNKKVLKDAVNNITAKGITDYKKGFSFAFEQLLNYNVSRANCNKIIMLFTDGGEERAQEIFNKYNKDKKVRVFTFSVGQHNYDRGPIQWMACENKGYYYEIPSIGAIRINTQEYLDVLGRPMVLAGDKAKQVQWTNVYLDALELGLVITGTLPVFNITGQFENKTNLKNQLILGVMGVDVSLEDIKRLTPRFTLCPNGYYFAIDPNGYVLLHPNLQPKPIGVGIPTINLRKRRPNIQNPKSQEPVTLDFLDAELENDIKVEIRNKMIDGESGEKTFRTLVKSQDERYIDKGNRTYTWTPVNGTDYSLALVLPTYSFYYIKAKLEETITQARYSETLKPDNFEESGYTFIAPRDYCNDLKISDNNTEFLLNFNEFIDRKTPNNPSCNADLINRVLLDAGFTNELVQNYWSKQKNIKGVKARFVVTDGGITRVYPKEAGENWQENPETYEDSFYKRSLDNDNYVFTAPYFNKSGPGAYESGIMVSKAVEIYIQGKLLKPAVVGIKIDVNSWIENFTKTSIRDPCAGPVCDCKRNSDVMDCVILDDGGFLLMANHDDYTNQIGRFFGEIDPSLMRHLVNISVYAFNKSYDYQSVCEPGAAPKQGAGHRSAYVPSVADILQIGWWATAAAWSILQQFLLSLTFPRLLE
T2 sequence (P54289 957-1103 partner limits assumed): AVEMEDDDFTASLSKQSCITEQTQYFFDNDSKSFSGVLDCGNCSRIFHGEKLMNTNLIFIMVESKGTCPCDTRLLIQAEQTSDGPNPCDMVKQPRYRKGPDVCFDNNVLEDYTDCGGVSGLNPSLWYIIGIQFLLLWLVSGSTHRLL

SMILES	IC90 [1]	IC50 [2]	IC50 [3]	FORMALIN TEST % inibition [4]
CNC(=O)C(C)NCc1ccc(OCc2ccccc2Cl)cc1 (single isomer, unassigned; isomer 2) [2-[4-(2-chlorobenzyloxy)benzylamino]-N-methyl-propanamide S isomer, 2-[4-(2-chlorobenzyloxy)benzylamino]-N-methyl-propanamide]	2.8 µM	30 µM	210 µM	32%
CNC(=O)[C@@H](C)NCc1ccc(OCc2ccccc2Cl)cc1.CS(=O)(=O)O [2-[4-(2-chlorobenzyloxy)benzylamino]-N-methyl-propanamide R isomer, (R)-2-[4-(2-chlorobenzyloxy)benzylamino]-N-methylpropanamide methanesulfonate]	122 µM	8.4 µM	38 µM	49%
CS(=O)(=O)O.C[C@@H](NCc1ccc(OCc2ccccc2F)cc1)C(N)=O [2-[4-(2-fluorobenzyloxy)benzylamino]-propanamide R isomer, (R)-2-[4-(2-fluorobenzyloxy)benzylamino]propanamide methanesulfonate]	2500 µM	29.2 µM	149 µM	80%
CC(NCc1ccc(OCc2cccc(Cl)c2)cc1)C(N)=O (single isomer, unassigned; isomer 2) [2-[4-(3-chlorobenzyloxy)benzylamino]-propanamide S isomer, 2-[4-(3-chlorobenzyloxy)benzylamino]-propanamide]	1.64 µM	94 µM	79 µM	45%
CC(NCc1ccc(OCc2ccccc2F)cc1)C(N)=O (single isomer, unassigned; isomer 2) [2-[4-(2-fluorobenzyloxy)benzylamino]-propanamide S isomer, 2-[4-(2-fluorobenzyloxy)benzylamino]-propanamide]	28.4 µM	23 µM	202 µM	79%
CS(=O)(=O)O.C[C@@H](NCc1ccc(OCc2cccc(Cl)c2)cc1)C(N)=O [2-[4-(3-chlorobenzyloxy)benzylamino]-propanamide R isomer, (R)-2-[4-(3-chlorobenzyloxy)benzylamino]propanamide methanesulfonate]	32.3 µM	20 µM	39 µM	39%

Source: US20110184068A1, “USE OF (HALOBENZYLOXY) BENZYLAMINO-PROPANAMIDES FOR THE MANUFACTURE OF MEDICAMENTS ACTIVE AS SODIUM AND/OR CALCIUM CHANNEL SELECTIVE MODULATORS” (Newron Pharmaceuticals S.p.A., priority 2004, published 2011)
